According to US10597388B2, “Pyridazinone herbicides” (FMC CORPORATION, priority 2014, dated 2020):

What was measured:
[1] = system: radish, wild (wild radish, Raphanus raphanistrum); test: Test D controlled growth environment herbicide test, pre- and postemergence; type: in vivo
How it was run: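 Rating is visual, 0–100 scale (100 = complete control), made against untreated plants 14–21 d after treatment in controlled growth conditions. Postemergence sprays went onto 1- to 4-leaf plants in peat medium; preemergence sprays onto silt loam after sowing; formulation included a surfactant.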

[2] = system: wild poinsettia (Euphorbia heterophylla); test: Test E greenhouse herbicide test, pre- and postemergence; type: in vivo
How it was run: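 Scores (0–100, visual, vs controls) reflect greenhouse growth of 14 to 21 d after treatment. Application was pre-emergence to silt loam or post-emergence at the 1- to 4-leaf stage.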

[3] = Postemergence, 31 g ai/ha, scale 0 to 100 (0 no effect, 100 complete control)
[4] = Postemergence, 125 g ai/ha, visual rating on scale 0 (no effect) to 100 (complete control), 14 to 21 d
[5] = Postemergence, 250 g ai/ha, scale 0 to 100 (0 no effect, 100 complete control)
[6] = Preemergence, 62 g ai/ha, scale 0 to 100 (0 no effect, 100 complete control)
[7] = Preemergence, 125 g ai/ha, scale 0 to 100 (0 no effect, 100 complete control)
[8] = Preemergence, 250 g ai/ha, scale 0 to 100 (0 no effect, 100 complete control)
[9] = postemergence, 62 g ai/ha, scale 0 to 100, 0 no effect, 100 complete control
[10] = 125 g ai/ha, Postemergence, scale 0 to 100 (0 no effect, 100 complete control)
[11] = 250 g ai/ha, Postemergence, scale 0 to 100 (0 no effect, 100 complete control)
[12] = 62 g ai/ha, Postemergence, scale 0 to 100 (0 no effect, 100 complete control)
[13] = Postemergence, 31 g ai/ha, visual, scale 0 no effect to 100 complete control
[14] = 62 g ai/ha, Preemergence, scale 0 to 100 (0 no effect, 100 complete control)
[15] = 125 g ai/ha, Preemergence, scale 0 to 100 (0 no effect, 100 complete control)
[16] = Preemergence, 31 g ai/ha, scale 0 to 100, 0 no effect, 100 complete control
[17] = Preemergence, 250 g ai/ha, visual, scale 0 no effect to 100 complete control

Structure (SMILES) | Radish, Wild plant response rating [1, 3] | Plant response rating, Radish, Wild [1, 4] | Plant response rating, Radish, Wild [1, 5] | Plant response rating (scale of 0 to 100), Radish, Wild ([1]; Preemergence, 31 g ai/ha) | Plant response rating, Radish, Wild [1, 6] | Plant response rating, Radish, Wild [1, 7] | Plant response rating, Radish, Wild [1, 8] | Plant response rating, Radish, Wild [1, 9] | Plant response rating, Poinsettia, Wild [2, 10] | Plant response rating, Poinsettia, Wild [2, 11] | Plant response rating, Poinsettia, Wild [2, 12] | Plant response rating, Poinsettia, Wild [2, 13] | Plant response rating, Poinsettia, Wild [2, 14] | Plant response rating, Poinsettia, Wild [2, 15] | Plant response rating, Poinsettia, Wild [2, 16] | Plant response rating, Poinsettia, Wild [2, 17] | Plant response rating (scale of 0 to 100), Radish, Wild ([1]; Preemergence, 62 g ai/ha) | Plant response rating, Poinsettia, Wild ([2]; Postemergence, 16 g ai/ha, visual, scale 0 no effect to 100 complete control) | Plant response rating, Poinsettia, Wild ([2]; Preemergence, 16 g ai/ha, scale 0 to 100, 0 no effect, 100 complete control) | Plant response rating, Poinsettia, Wild ([2]; Preemergence, scale 0 to 100, 0 no effect, 100 complete control)
CCOC(=O)Oc1c(C)nn(C)c(=O)c1-c1c(C)ccc2ccccc12 [Compound 73] | 75 | 100 | 100 | 30 | 75 | 100 | 90 | 95 |  |  |  |  |  |  |  |  |  |  |  | 
CCC(=O)Oc1c(C)nn(C)c(=O)c1-c1c(C)sc2c(C)cc(C)cc12 [Compound 28] | 85 | 85 | 95 | 0 | 0 | 35 | 30 | 100 | 50 | 40 |  |  |  |  |  |  |  |  |  | 
COc1nn(C)c(=O)c(-c2c(C)sc3ccc(Cl)cc23)c1O [Compound 100] |  |  |  |  |  |  |  |  | 10 | 35 | 0 | 0 |  |  |  |  |  |  |  | 
C#CCOC(=O)Oc1c(C)nn(C)c(=O)c1-c1c(C)sc2ccc(C)cc12 [Compound 87] | 15 | 30 | 60 | 45 |  | 75 | 95 | 20 |  |  |  |  | 15 | 15 | 0 | 20 | 65 |  |  | 
CC(=O)Oc1c(C)nn(C)c(=O)c1-c1c(C)sc2c(C)cc(C)cc12 [Compound 27] | 65 | 85 | 90 | 0 | 50 | 60 | 95 | 75 |  |  |  |  |  |  |  |  |  |  |  | 
CC(=O)Oc1c(C)nn(C)c(=O)c1-c1c(C)sc2ccc(C)cc12 [Compound 25] | 15 | 65 | 75 | 0 | 0 | 0 | 0 | 35 | 35 | 60 | 30 | 35 |  |  |  |  |  |  |  | 
Cc1cc(C)c2sc(C)c(-c3c(OC(=O)OC(C)C)c(C)nn(C)c3=O)c2c1 [Compound 67] | 55 | 70 | 95 | 25 | 60 | 75 | 95 | 65 |  |  |  |  |  |  |  |  |  |  |  | 
Cc1cc(C)c2sc(C)c(-c3c(OC(=O)OCCCl)c(C)nn(C)c3=O)c2c1 [Compound 85] | 60 | 75 | 80 | 0 |  | 100 | 100 | 65 |  |  |  |  |  |  |  |  | 25 |  |  | 
CCC(=O)Oc1c(C)nn(C)c(=O)c1-c1c(C)sc2ccc(C)cc12 [Compound 42] | 5 | 20 | 65 | 0 |  | 15 | 60 | 10 |  |  |  |  |  |  |  |  |  |  |  | 
CCC(=O)Oc1c(C)nn(C)c(=O)c1-c1c(C)sc2ccc(Cl)cc12 [Compound 109] | 75 | 90 | 100 | 25 |  | 90 | 95 | 75 | 50 |  | 45 | 25 |  | 30 | 10 |  | 75 | 0 | 10 | 25
CCOC(=O)Oc1c(C)nn(C)c(=O)c1-c1c(C)sc2ccc(C)cc12 [Compound 82] | 25 | 50 | 60 | 65 |  | 60 | 100 | 20 | 40 | 50 | 30 | 40 | 0 | 0 | 0 | 20 | 60 |  |  | 
CSCC(=O)Oc1c(C)nn(C)c(=O)c1-c1cccc2ccccc12 [Compound 171] |  |  |  |  |  |  |  |  | 40 | 80 | 30 | 25 |  |  |  |  |  |  |  | 
CCOC(=O)Oc1c(C)nn(C)c(=O)c1-c1c(C)sc2c(C)cc(C)cc12 [Compound 83] | 75 | 100 | 100 | 30 |  | 90 | 90 | 90 |  |  |  |  |  |  |  |  | 70 |  |  | 
COc1nn(C)c(=O)c(-c2c(C)ccc3ccccc23)c1OC(=O)OC(C)C [Compound 36] | 80 | 100 | 100 | 0 | 0 | 50 | 70 | 90 |  |  |  |  |  |  |  |  |  |  |  | 
Cc1nn(C)c(=O)c(-c2c(C)sc3ccc(Cl)cc23)c1O [Compound 104] | 70 | 90 | 95 | 95 |  | 95 | 100 | 75 |  |  |  |  |  |  |  |  | 100 |  |  | 
Cc1ccc2ccccc2c1-c1c(O)c(C)nn(C)c1=O [Compound 59] | 95 | 100 | 100 |  | 85 | 95 | 100 | 95 |  |  |  |  |  |  |  |  |  |  |  | 
Cc1ccc(-c2c(O)c(Br)nn(C)c2=O)c2ccccc12 [Compound 52] | 35 | 80 | 85 | 0 | 15 | 55 | 75 | 65 |  |  |  |  |  |  |  |  |  |  |  | 
Cc1ccc2ccc(C)c(-c3c(O)c(C)nn(C)c3=O)c2c1 [Compound 60] | 65 | 95 | 95 | 55 | 90 | 95 | 90 | 75 |  |  |  |  |  |  |  |  |  |  |  | 
COc1nn(C)c(=O)c(-c2c(C)ccc3ccccc23)c1O [Compound 54] | 80 | 100 | 100 | 25 | 100 | 100 | 100 | 100 |  |  |  |  |  |  |  |  |  |  |  | 
